How the values were obtained:
SGK1 = tested on: T1, SGK1; test: ADP-Glo kinase assay; type: biochemical; conditions: 50 µM
T1 construct: purchased Promega V2911
Description: Elisa Assay for phosphorylation of Akt
Neuro 2A cells in 48-well plates were incubated with the inhibitor for 30 minutes at 37°C followed by IGF stimulation for 30 min. Cells were lysed and subjected to Elisa assay using an Akt (S473) InstantOne Elisa kit (ThermoFisher Scientific, # 8586042-11) in accordance with manufacturer ’s instruction.
An ADP-GloTM kinase assay kit (Promega, # V9101) was used to measure the activity of PDK1 or SGK1 in accordance with the manufacturer’s instructions. For PDK1 assay, the reaction mixture included 5 µM ATP, 50 µM inhibitor, 100 ng recombinant PDK1 and 2 µg PDKtide substrate (Promega, #V2761) prior to the addition of the ADP-Glo reagents. For SGK1, 5 µM ATP, 50 µM inhibitor, 10 ng SGK1 and 1 µg Akt substrate peptide (Promega, #V2911) were used. Staurosporine at concentration between 0.4 and 4,000 nM or the SGK1 inhibitor GSK-650394 (Tocris Bioscience) between 7 and 2,000 nM were used as controls for PDK1 or SGK1 assay respectively. For PI3K assay, 50 µM ATP, 50 µM inhibitor, 100 ng recombinant PI3 kinase (SignalChem, Richmond, Canada, # P27-10H-05) and 1.5 mg/mL multilamellar phospholipid vesicles containing PC/PE/PS/PIP2 (at mass ratio of 1/0.5/0.2/0.1) were used. Inhibitor blanks as well as LY-294002 between 78 and […]

PKA = test: Western blot of PKA phosphorylation; type: cell-based, Mouse; conditions: Neuro 2A cells
Description: Neuro 2A cells were seeded in 12-well plates in DMEM containing 5% FBS for 24 hr.
After overnight serum starvation (in 0% FBS DMEM), cells were incubated for 30 min at 37 °C with G7 or LY294002 or Torin 1 (Sigma Aldrich) at various concentrations, or DMSO control. IGF-1 was added to each well at a final concentration of 100 ng/mL. After 30-min incubation cells were washed with cold PBS and lysed with 50 µL lysis buffer containing 1% Triton X-100 and protease/phosphatase inhibitors (Cell Signaling Technology) or RIPA buffer (Santa Cruz Biotech). Samples were electrophoresed in 4–12% Bis-Tris gels (Life Technologies) at 150 V using MOPS SDS running buffer. Proteins were transferred electrophoretically to a PVDF or nitrocellulose membrane. For detection of cleaved […]
caspase 3 a Trans-Blot Turbo Transfer System (Bio-Rad, 25 V for 25 min) with PVDF membrane were used. […]
anti- GAPDH (14C10) antibody (#2118) (all antibodies were from Cell Signaling Technology unless indicated, 1:1000 dilution was used) at 4°C overnight, washed three times with TBS-T, then incubated with peroxidase-conjugated secondary antibody (Sigma-Aldrich) for 1 hr at room temperature. […] Band intensity was quantitated using Kodak 1D imaging analysis software. […]

AKT3 = test: KINOMEscan; conditions: 50000 nM
Description: KINOMEscan™ selectivity screen
(§1) The assay was perfor med at DiscoveRx Corporation according the methods published previously5. Briefly, Kinase-tagged T7 phage strains were grown in parallel in an E. coli host derived from the BL21 strain. E. coli were grown to log-phase and infected with T7 phage from a frozen stock and incubated with shaking at 32°C until lysis (90-150 minutes). The kinases were produced in HEK-293 cells and subsequently tagged with DNA for qPCR detection. Streptavidin-coated magnetic beads were treated with biotinylated small molecule ligands to generate affinity resins for kinase
(§2) inhibitor or DMSO control was performed in polypropylene 384-well plates for 1 hr at room temperature. After wash with PBS buffer containing 0.05% Tween 20, the beads were incubated in elution buffer (PBS containing 0.05 % Tween 20 and 0.5 μM non-biotinylated affinity ligand) for 30 minutes at room temperature. The kinase concentration in the eluates was measured by qPCR.

PIK3CA(M1043I) = test: KINOMEscan; conditions: 50000 nM
Description: KINOMEscan™ selectivity screen
as §1, §2

GRK4 = test: KINOMEscan; conditions: 50000 nM
Description: KINOMEscan™ selectivity screen
(§3) The assay was perfor med at DiscoveRx Corporation according the methods published previously5. […] The kinases were produced in HEK-293 cells and subsequently tagged with DNA for qPCR detection. Streptavidin-coated magnetic beads were treated with biotinylated small molecule ligands to generate affinity resins for kinase
as §2

PIK3CA(I800L) = test: KINOMEscan; conditions: 50000 nM
Description: KINOMEscan™ selectivity screen
as §1, §2

RAF1 = test: KINOMEscan; conditions: 50000 nM
Description: KINOMEscan™ selectivity screen
as §1, §2

ASK1 = test: KINOMEscan; conditions: 50000 nM
Description: KINOMEscan™ selectivity screen
as §1, §2

YANK3 = test: KINOMEscan; conditions: 50000 nM
Description: KINOMEscan™ selectivity screen
as §1, §2

LYN = test: KINOMEscan; conditions: 50000 nM
Description: KINOMEscan™ selectivity screen
as §1, §2

PKAC-beta = test: KINOMEscan; conditions: 50000 nM
Description: KINOMEscan™ selectivity screen
as §1, §2

SGK3 = test: KINOMEscan; conditions: 50000 nM
Description: KINOMEscan™ selectivity screen
as §1, §2

LOK = test: KINOMEscan; conditions: 50000 nM
Description: KINOMEscan™ selectivity screen
as §1, §2

ASK2 = test: KINOMEscan; conditions: 50000 nM
Description: KINOMEscan™ selectivity screen
(§4) Briefly, Kinase-tagged T7 phage strains were grown in parallel in an E. coli host derived from the BL21 strain. E. coli were grown to log-phase and infected with T7 phage from a frozen stock and incubated with shaking at 32°C until lysis (90-150 minutes). The kinases were produced in HEK-293 cells and subsequently tagged with DNA for qPCR detection. Streptavidin-coated magnetic beads were treated with biotinylated small molecule ligands to generate affinity resins for kinase
as §2

FLT3(R834Q) = test: KINOMEscan; conditions: 50000 nM
Description: KINOMEscan™ selectivity screen
as §3, §2

STK16 = test: KINOMEscan; conditions: 50000 nM
Description: KINOMEscan™ selectivity screen
The kinases were produced in HEK-293 cells and subsequently tagged with DNA for qPCR detection. Streptavidin-coated magnetic beads were treated with biotinylated small molecule ligands to generate affinity resins for kinase
as §2

PIKFYVE = test: KINOMEscan; conditions: 50000 nM
Description: KINOMEscan™ selectivity screen
as §4, §2

DYRK2 = test: KINOMEscan; conditions: 50000 nM
Description: KINOMEscan™ selectivity screen
as §1, §2

EGFR(L861Q) = test: KINOMEscan; conditions: 50000 nM
Description: KINOMEscan™ selectivity screen
as §4, §2

PIK3CB = test: KINOMEscan; conditions: 50000 nM
Description: KINOMEscan™ selectivity screen
as §4, §2

PAK2 = test: KINOMEscan; conditions: 50000 nM
Description: KINOMEscan™ selectivity screen
as §1, §2

VEGFR2 = test: KINOMEscan; conditions: 50000 nM
Description: KINOMEscan™ selectivity screen
as §1, §2

MAP3K2 = test: KINOMEscan; conditions: 50000 nM
Description: KINOMEscan™ selectivity screen
as §1, §2

RIOK3 = test: KINOMEscan; conditions: 50000 nM
Description: KINOMEscan™ selectivity screen
as §1, §2

[1] = tested on: ABL1(M351T)-phosphorylated; test: KINOMEscan; conditions: 50000 nM
Description: KINOMEscan™ selectivity screen
as §3, §2

FLT3-autoinhibited = test: KINOMEscan; conditions: 50000 nM
Description: KINOMEscan™ selectivity screen
as §1, §2

SRPK1 = test: KINOMEscan; conditions: 50000 nM
Description: KINOMEscan™ selectivity screen
as §1, §2

CSNK1E = test: KINOMEscan; conditions: 50000 nM
Description: KINOMEscan™ selectivity screen
as §1, §2

## Oc1cc(-c2ccccc2)c2ccccc2n1 [G7, 4-phenylquinolin-2(1H)-one]
SGK1
  effect on SGK1 activity: no effects
PKA
  phosphorylation (activation status) of PKA: did not alter
AKT3
  Percent Control: 100%
PIK3CA(M1043I)
  Percent Control: 100%
GRK4
  Percent Control: 96%
PIK3CA(I800L)
  Percent Control: 95%
RAF1
  Percent Control: 95%
ASK1
  Percent Control: 94%
YANK3
  Percent Control: 93%
LYN
  Percent Control: 88%
PKAC-beta
  Percent Control: 86%
SGK3
  Percent Control: 83%
LOK
  Percent Control: 82%
ASK2
  Percent Control: 78%
FLT3(R834Q)
  Percent Control: 76%
STK16
  Percent Control: 75%
PIKFYVE
  Percent Control: 74%
DYRK2
  Percent Control: 72%
EGFR(L861Q)
  Percent Control: 71%
PIK3CB
  Percent Control: 69%
PAK2
  Percent Control: 68%
VEGFR2
  Percent Control: 67%
MAP3K2
  Percent Control: 63%
RIOK3
  Percent Control: 58%
[1]
  Percent Control: 55%
FLT3-autoinhibited
  Percent Control: 54%
SRPK1
  Percent Control: 47%
CSNK1E
  Percent Control: 15%
